Experiment: xn = mol fraction of the nth substance listed
Settings: for surface tension liquid-gas: Wilhelmy-plate method; for viscosity / mass density: 101 kPa, Liquid; for viscosity: Falling or rolling sphere viscometry; for mass density: Vibrating tube method

CC(C)CC(C)(C)C [2,2,4-trimethylpentane] + CC(C)O
Settings	mass density [kg/m3]	surface tension liquid-gas [mN/m]	viscosity [mPa·s]
293.15 K, x2 = 0	691.98	18.8	0.503
293.15 K, x2 = 0.0501	693.38	–	0.502
293.15 K, x2 = 0.1006	695.3	18.8	0.509
293.15 K, x2 = 0.1512	697.45	–	0.517
293.15 K, x2 = 0.2003	699.71	18.9	0.53
293.15 K, x2 = 0.2501	702.18	–	0.543
293.15 K, x2 = 0.3003	704.91	19	0.563
293.15 K, x2 = 0.3502	707.91	–	0.593
293.15 K, x2 = 0.4004	711.2	19	0.628
293.15 K, x2 = 0.4502	714.74	–	0.662
293.15 K, x2 = 0.5001	718.61	19.2	0.699
293.15 K, x2 = 0.55	722.8	–	0.755
293.15 K, x2 = 0.5998	727.34	19.3	0.82
293.15 K, x2 = 0.6502	732.45	–	0.906
293.15 K, x2 = 0.7002	737.93	19.6	1.004
293.15 K, x2 = 0.7499	743.9	–	1.12
293.15 K, x2 = 0.7999	750.57	20	1.264
293.15 K, x2 = 0.85	757.91	–	1.439
293.15 K, x2 = 0.8999	766.04	20.6	1.666
293.15 K, x2 = 0.95	775.2	–	1.96
303.15 K, x2 = 0	683.61	17.9	0.447
303.15 K, x2 = 0.05	684.93	–	0.444
303.15 K, x2 = 0.1	686.65	17.9	0.45
303.15 K, x2 = 0.1499	688.68	–	0.457
303.15 K, x2 = 0.2004	690.94	17.9	0.464
303.15 K, x2 = 0.2497	693.36	–	0.474
303.15 K, x2 = 0.3	696.11	18	0.491
303.15 K, x2 = 0.3499	699.03	–	0.508
303.15 K, x2 = 0.4008	702.3	18	0.532
303.15 K, x2 = 0.4503	705.79	–	0.558
303.15 K, x2 = 0.5	709.61	18.1	0.589
303.15 K, x2 = 0.5498	713.82	–	0.633
303.15 K, x2 = 0.6001	718.44	18.3	0.682
303.15 K, x2 = 0.65	723.45	–	0.745
303.15 K, x2 = 0.7001	728.94	18.6	0.814
303.15 K, x2 = 0.7495	734.92	–	0.899
303.15 K, x2 = 0.7989	741.51	19	0.995
303.15 K, x2 = 0.8499	748.97	–	1.158
303.15 K, x2 = 0.8997	757.15	19.6	1.307
303.15 K, x2 = 0.95	766.32	–	1.485
313.15 K, x2 = 0	675.23	16.9	0.404
313.15 K, x2 = 0.0499	676.34	–	0.398
313.15 K, x2 = 0.1001	677.92	16.9	0.401
313.15 K, x2 = 0.1503	679.86	–	0.405
313.15 K, x2 = 0.2001	682.09	16.9	0.412
313.15 K, x2 = 0.2499	684.47	–	0.42
313.15 K, x2 = 0.3003	687.15	17	0.43
313.15 K, x2 = 0.3497	689.97	–	0.449
313.15 K, x2 = 0.4	693.18	17.1	0.458
313.15 K, x2 = 0.4502	696.67	–	0.476
313.15 K, x2 = 0.5005	700.49	17.2	0.5
313.15 K, x2 = 0.5499	704.67	–	0.529
313.15 K, x2 = 0.6	709.23	17.5	0.569
313.15 K, x2 = 0.6498	714.27	–	0.61
313.15 K, x2 = 0.6999	719.71	17.8	0.657
313.15 K, x2 = 0.75	725.83	–	0.719
313.15 K, x2 = 0.7998	732.49	18.2	0.782
313.15 K, x2 = 0.8498	739.89	–	0.87
313.15 K, x2 = 0.8999	748.21	18.8	0.987
313.15 K, x2 = 0.9499	757.39	–	1.129
323.15 K, x2 = 0	666.8	16.2	0.365
323.15 K, x2 = 0.0501	667.65	–	0.359
323.15 K, x2 = 0.1	669.08	16.2	0.36
323.15 K, x2 = 0.15	670.98	–	0.366
323.15 K, x2 = 0.1998	673.08	16.2	0.37
323.15 K, x2 = 0.25	675.42	–	0.375
323.15 K, x2 = 0.3	677.99	16.2	0.383
323.15 K, x2 = 0.35	680.86	–	0.392
323.15 K, x2 = 0.4	683.93	16.3	0.403
323.15 K, x2 = 0.4499	687.34	–	0.417
323.15 K, x2 = 0.5	691.07	16.4	0.433
323.15 K, x2 = 0.5501	695.17	–	0.456
323.15 K, x2 = 0.6	699.74	16.7	0.479
323.15 K, x2 = 0.65	704.78	–	0.508
323.15 K, x2 = 0.7	710.22	17	0.544
323.15 K, x2 = 0.7499	716.22	–	0.588
323.15 K, x2 = 0.7999	722.88	17.4	0.632
323.15 K, x2 = 0.85	730.48	–	0.696
323.15 K, x2 = 0.9	738.82	18	0.776
323.15 K, x2 = 0.95	748.16	–	0.875

C1CCOCC1 [tetrahydropyran] + CC(C)CC(C)(C)C
Settings	mass density [kg/m3]	surface tension liquid-gas [mN/m]	viscosity [mPa·s]
293.15 K, x1 = 0.0502	697.82	18.9	0.506
293.15 K, x1 = 0.1	703.85	19	0.514
293.15 K, x1 = 0.1499	710.17	19.2	0.524
293.15 K, x1 = 0.2	716.8	19.4	0.533
293.15 K, x1 = 0.25	723.72	19.6	0.544
293.15 K, x1 = 0.3	730.98	19.8	0.553
293.15 K, x1 = 0.35	738.59	20.1	0.564
293.15 K, x1 = 0.4	746.55	20.3	0.577
293.15 K, x1 = 0.4498	754.88	20.6	0.592
293.15 K, x1 = 0.5001	763.72	20.9	0.606
293.15 K, x1 = 0.5501	772.97	21.2	0.623
293.15 K, x1 = 0.5999	782.67	21.6	0.638
293.15 K, x1 = 0.6501	793	22	0.655
293.15 K, x1 = 0.6999	803.82	22.5	0.675
293.15 K, x1 = 0.75	815.32	23.1	0.696
293.15 K, x1 = 0.8	827.51	23.6	0.718
293.15 K, x1 = 0.8501	840.43	24.3	0.743
293.15 K, x1 = 0.9	854.12	25.2	0.771
293.15 K, x1 = 0.95	868.68	26.3	0.803
293.15 K, x1 = 1	884.27	27.5	0.86
303.15 K, x1 = 0.0502	689.38	18	0.452
303.15 K, x1 = 0.1	695.35	18.2	0.455
303.15 K, x1 = 0.1499	701.6	18.3	0.463
303.15 K, x1 = 0.2	708.16	18.6	0.47
303.15 K, x1 = 0.25	715.01	18.8	0.478
303.15 K, x1 = 0.2999	722.17	19	0.488
303.15 K, x1 = 0.3498	729.67	19.2	0.497
303.15 K, x1 = 0.3998	737.56	19.5	0.509
303.15 K, x1 = 0.4498	745.84	19.7	0.52
303.15 K, x1 = 0.5001	754.6	20	0.533
303.15 K, x1 = 0.5501	763.76	20.3	0.546
303.15 K, x1 = 0.5999	773.38	20.6	0.56
303.15 K, x1 = 0.6501	783.61	21	0.574
303.15 K, x1 = 0.6999	794.32	21.5	0.59
303.15 K, x1 = 0.75	805.72	22.1	0.607
303.15 K, x1 = 0.8	817.78	22.6	0.625
303.15 K, x1 = 0.8501	830.59	23.3	0.646
303.15 K, x1 = 0.9	844.14	24.2	0.67
303.15 K, x1 = 0.95	858.58	25.2	0.699
303.15 K, x1 = 1	874.07	26.2	0.749
313.15 K, x1 = 0.0501	680.92	17.1	0.407
313.15 K, x1 = 0.1002	686.85	17.3	0.411
313.15 K, x1 = 0.1501	693.02	17.5	0.416
313.15 K, x1 = 0.1999	699.48	17.7	0.422
313.15 K, x1 = 0.2501	706.27	17.9	0.429
313.15 K, x1 = 0.3	713.35	18.1	0.437
313.15 K, x1 = 0.3499	720.78	18.4	0.444
313.15 K, x1 = 0.4002	728.64	18.6	0.453
313.15 K, x1 = 0.4502	736.83	18.9	0.463
313.15 K, x1 = 0.4999	745.4	19.1	0.473
313.15 K, x1 = 0.5499	754.47	19.4	0.484
313.15 K, x1 = 0.6	764.05	19.7	0.496
313.15 K, x1 = 0.65	774.13	20.1	0.509
313.15 K, x1 = 0.6998	784.75	20.6	0.523
313.15 K, x1 = 0.75	796.05	21.2	0.538
313.15 K, x1 = 0.8001	808	21.7	0.554
313.15 K, x1 = 0.8501	820.66	22.4	0.573
313.15 K, x1 = 0.9001	834.12	23.2	0.596
313.15 K, x1 = 0.9498	848.37	24.1	0.624
313.15 K, x1 = 1	863.76	25.1	0.658
323.15 K, x1 = 0.0501	672.44	16.4	0.366
323.15 K, x1 = 0.1002	678.3	16.6	0.369
323.15 K, x1 = 0.1501	684.41	16.7	0.372
323.15 K, x1 = 0.1999	690.79	17	0.377
323.15 K, x1 = 0.2501	697.5	17.2	0.383
323.15 K, x1 = 0.3	704.51	17.3	0.39
323.15 K, x1 = 0.3499	711.86	17.5	0.398
323.15 K, x1 = 0.4002	719.63	17.8	0.406
323.15 K, x1 = 0.45	727.72	18	0.415
323.15 K, x1 = 0.5002	736.27	18.3	0.424
323.15 K, x1 = 0.55	745.22	18.5	0.433
323.15 K, x1 = 0.5997	754.63	18.8	0.443
323.15 K, x1 = 0.65	764.68	19.2	0.454
323.15 K, x1 = 0.6998	775.17	19.6	0.466
323.15 K, x1 = 0.75	786.37	20.1	0.479
323.15 K, x1 = 0.8001	798.2	20.7	0.493
323.15 K, x1 = 0.8501	810.77	21.3	0.508
323.15 K, x1 = 0.9002	824.1	22.1	0.523
323.15 K, x1 = 0.95	838.27	22.9	0.541
323.15 K, x1 = 1	853.46	23.8	0.565
